Literature values in patent US20070015686A1, “Dietary supplement for enhancing skeletal muscle mass, decreasing muscle protein degradation, downregulation of muscle catabolism pathways, and decreasing catabolism of muscle cells” (priority 2005, published 2007).
One block for each compound: values may come before it.

How the values were obtained:
[1] = ingestion of a concomitant carbohydrate
[2] = molecular target: T1, chymotrypsin-like activity of the proteasome complex (Homo sapiens, UniProt P28074); settings: in vitro and in vivo; concentrations found in the serum of green tea drinkers
T1 sequence (P28074 60-263): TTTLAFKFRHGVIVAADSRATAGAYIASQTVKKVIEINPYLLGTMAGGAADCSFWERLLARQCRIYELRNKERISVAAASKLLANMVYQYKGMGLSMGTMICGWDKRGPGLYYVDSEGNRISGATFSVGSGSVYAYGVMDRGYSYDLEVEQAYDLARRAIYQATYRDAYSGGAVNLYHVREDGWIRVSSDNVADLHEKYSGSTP

[3] = laboratory tests; greater than vitamin C and vitamin E
NF-κβ = settings: following administration, during inflammation and infection

Creatine retention, increased efficiency [1]: up to 60%
SMILES: CN(CC(=O)O)C(=N)N [Creatine, N-methyl-N-guanyl Glycine]

inhibition of the chymotrypsin-like activity of the proteasome complex [2]: potent specific inhibitors
SMILES: O=C(O[C@@H]1Cc2c(O)cc(O)cc2O[C@@H]1c1ccc(O)c(O)c1)c1cc(O)c(O)c(O)c1 [ECG, epicatechin gallate]

inhibition of the chymotrypsin-like activity of the proteasome complex [2]: potent specific inhibitors
SMILES: O=C(O[C@@H]1Cc2c(O)cc(O)cc2O[C@@H]1c1cc(O)c(O)c(O)c1)c1cc(O)c(O)c(O)c1 [EGCG, epigallocatechin gallate]
antioxidant activity [3]: potent antioxidant activity

SMILES: CC1=C(/C=C/C(C)=C/C=C/C(C)=C/C=C/C=C(C)/C=C/C=C(C)/C=C/C2=C(C)C(=O)[C@@H](O)CC2(C)C)C(C)(C)C[C@H](O)C1=O [astaxanthin]
NF-κβ activation / nuclear translocation (NF-κβ): decreased NF-κβ activation

SMILES: CC(C)=C[C@H]1C[C@](O)([C@H]2CC[C@]3(C)[C@H]2CCC2[C@@]4(C)CC[C@H](O[C@@H]5OC[C@@H](O)[C@H](O[C@@H]6O[C@H](CO)[C@@H](O)[C@H](O)[C@H]6O)[C@@H]5O[C@H]5O[C@H](C)[C@@H](O)[C@H](O)[C@@H]5O)C(C)(C)C4CC[C@]23C)[C@H](O)O1 (stereo partly shown) [phanoside]
insulin-releasing activity (pancreatic β-cells): potent insulin-releasing activity

inhibition of the chymotrypsin-like activity of the proteasome complex [2]: potent specific inhibitors
SMILES: O=C(OC[C@H]1O[C@@H](OC(=O)c2cc(O)c(O)c(OC(=O)c3cc(O)c(O)c(O)c3)c2)[C@H](OC(=O)c2cc(O)c(O)c(OC(=O)c3cc(O)c(O)c(O)c3)c2)[C@@H](OC(=O)c2cc(O)c(O)c(OC(=O)c3cc(O)c(O)c(O)c3)c2)[C@@H]1OC(=O)c1cc(O)c(O)c(OC(=O)c2cc(O)c(O)c(O)c2)c1)c1cc(O)c(O)c(OC(=O)c2cc(O)c(O)c(O)c2)c1 [tannic acid]
